Test: Inhibition of 3 nM [3H]clonidine binding to rat kidney membrane imidazoline receptor I-1 in presence of rauwolscine

IC50: 8.1 µM
Structure (SMILES): N#CSc1ccc2oc(C3=NCCN3)cc2c1

— BindingDB's records for doi:10.1016/s0960-894x(00)00062-7 (University of Bristol, 2000)
